Columns and labels:
MDA-MB-231 = assay: CellTiterGlo; type: cell-based; settings: Homo sapiens, MDA-MB-231, read-out: MDA-MB-231 EC50
SUM149 = assay: CellTiterGlo; type: cell-based; settings: SUM149, read-out: SUM149 EC50
HMEC = assay: CellTiterGlo; type: cell-based; settings: Homo sapiens, read-out: HMEC EC50
T-47D = assay: CellTiterGlo; type: cell-based; settings: Homo sapiens, T47D, read-out: T-47D EC50
[1] = Solubility / precipitation; settings: 5–10 mM concentrations in DMSO, RT

Row | EC50 (MDA-MB-231) [µM] | Structure (SMILES) | EC50 (SUM149) [µM] | EC50 (HMEC) [µM] | EC50 (T-47D) [µM] | solubility (physchem) [µM] | time after which precipitation occurs [1] [h]
1 | 5 | CCCCCOC(=O)Nc1nc(=O)n([C@@H]2O[C@H](C)[C@@H](O)[C@H]2O)cc1F [Capecitabine] | 5 | 10 |  |  | 
2 | 1 | COc1cccc2c1C(=O)c1c(O)c3c(c(O)c1C2=O)C[C@@](O)(C(=O)CO)C[C@@H]3O[C@H]1C[C@H](N)[C@H](O)[C@H](C)O1 [Doxorubicin] | 1 | > 10 |  |  | 
3 | 2 | CC(=O)O[C@H]1C(=O)[C@@]2(C)[C@H]([C@H](OC(=O)c3ccccc3)[C@]3(O)C[C@H](OC(=O)[C@H](O)[C@@H](NC(=O)c4ccccc4)c4ccccc4)C(C)=C1C3(C)C)[C@]1(OC(C)=O)CO[C@@H]1C[C@@H]2O [Taxol] | 0.01 | > 10 |  |  | 

Row | Structure (SMILES) | EC50 (MDA-MB-231) [µM] | EC50 (SUM149) [µM] | EC50 (HMEC) [µM] | EC50 (T-47D) [µM] | solubility (physchem) [µM] | time after which precipitation occurs [1] [h]
4 | CC(C)[C@@H](C)/C=C/[C@@H](C)[C@H]1CC[C@@H]2[C@]1(C)CC[C@H]1[C@]23C=C[C@]2(C[C@@H](O)CC[C@]12C)OO3 [compound 3, ergosterol peroxide] | 18 | 9 | > 20 | 19 | < 50 | 168

Reference: article PMC6541511 (Organic & biomolecular chemistry, 2019)
